Test results reported in patent US10052326B1, “Antihepatotoxic agents” (KING SAUD UNIVERSITY, priority 2017, dated 2018).
Values belong to the molecule of their own block, whether it stands above or below them.

Experiments:
[1] = tested on: mice; experiment: Acute toxicity test, oral administration; assay type: in vivo; settings: in 0.5% CMC, observation up to 14 days
Experimental: Acute toxicity test: The acute toxicity test was performed on mice, for oral administration. DHPB-2 was dissolved in 0.5% CMC (carboxymethylcellulose) in water and administered at various doses, ranging from ([…]), to different groups of mice. The animals were observed continuously for 1 h and then at half hourly intervals for 4 h on the first day for clinical signs and symptoms of toxicity, and further up to 72 h followed by 14 days, for any mortality.

[2] = tested on: CCl4-induced hepatotoxicity; experiment: Estimation of serum marker enzymes and bilirubin in CCl4-intoxicated rats; assay type: in vivo, Wistar albino rats; settings: 20 mg/kg orally for 2 weeks before CCl4, vs CCl4 group
Experimental: (§1) Animals and study design: Wistar albino rats (180-200 g) were obtained from the Experimental Animal Care Center of the College of Pharmacy, King Saud University, Riyadh. Animals were maintained on standard chow diet and housed in polycarbonate cages in a room free from any source of chemical contamination, artificially illuminated (12 h dark/light cycle) and thermally controlled (25±2° C.) at the animal facility. All animals received humane care in compliance with the guidelines of the Ethics Committee of the Experimental Animal Care Society, College of Pharmacy, King Saud University, Riyadh, Saudi Arabia. After a one-week acclimatization period, animals were randomly allocated into 5 groups and treated as follows: group (1), untreated control; and groups 2, 3, 4, and 5 received 0.25 mL of CCl4 in liquid paraffin (1:1) 1.25 mL/kg body weight intraperitoneally (IP). Group 2 was administered only CCl4. Groups 3 and 4 received DHBP-2 (10 mg/kg) and (20 mg/kg/day) orally for 2 weeks, respectively. Rats in group 5 were treated with (10 mg/kg) orally with silymarin for similar days. The blood was collected by cardiac puncture after 24 hours following the administration of CCl4, allowed to clot, and the serum was then separated. After collecting the blood, the animals were sacrificed using ether anesthesia. The rat livers were dissected out and used for biochemical estimations and histological assessment.
Estimation of marker enzymes: Serum glutamate oxaloacetate transaminase (SGOT/AST), serum glutamate pyruvate transaminase (SGPT/ALT) (Reitman S. A. et al., Am. J. Clin. Pathol. 1957, 28 (1), 56-63), alkaline phosphatase (ALP), gamma-glutamyl transferase (GGT) and bilirubin were determined using Reflotron Plus Analyzer and Roche kits (Roche Diagnostics GmbH, Mannheim, Germany) (King E. J. et al., Practical Clinical Biochemistry, H. Varley, Ed., CBS publishers, New Delhi, India, 1988).

[3] = tested on: CCl4-induced hepatotoxicity; experiment: Serum lipid profile in CCl4-intoxicated rats; assay type: in vivo, Wistar albino rats; settings: 20 mg/kg, two week pretreatment before CCl4
Experimental: as §1

[4] = tested on: CCl4-induced hepatotoxicity; experiment: Determination of malondialdehyde (MDA) in liver tissue of CCl4-intoxicated rats; assay type: in vivo, Wistar albino rats
Experimental: as §1
Determination of malondialdehyde (MDA): The method reported by (Utley H. C. et al., Archives of Biochemistry Biophysics, 1967, 260, 521-531) was followed. Briefly, the liver tissues were removed, and tissue was homogenized in 0.15 M KCl (at 4° C.; Potter-Elvehjem type C homogenizer) to give a 10% w/v homogenate. The absorbance of the solution was then read at 532 nm. The content of malondialdehyde (nmol/g wet tissue) was then calculated, by reference to a standard curve of malondialdehyde solution.

[5] = tested on: CCl4-induced hepatotoxicity; experiment: Estimation of hepatic non-protein sulfhydryls (NP-SH) in CCl4-intoxicated rats; assay type: in vivo, Wistar albino rats; settings: liver tissue; for NP-SH: n = 6, mean
Experimental: as §1
Estimation of non-protein sulfhydryls (NP-SH): Hepatic non-protein sulfhydryls were measured according to the method of Sedlak and Lindsay et. al., Analytical Biochemistry C, 1968, 25, 192-205. The livers were homogenized in ice-cold 0.02 mmol/L ethylenediaminetetraacetic acid (EDTA). The absorbance was measured within 5 min. of addition of 5,5′-dithio-bis(2-nitrobenzoic acid) (DTNB) at 412 nm against a reagent blank.

[6] = tested on: CCl4-induced hepatotoxicity; experiment: Determination of total protein (TP) in CCl4-intoxicated rats; assay type: in vivo, Wistar albino rats; settings: liver tissue; for Total Protein: n = 6, mean
Experimental: as §1
Determination of total protein (TP): Total protein was estimated by the kit method, supplied by Crescent Diagnostics, Jeddah, Saudi Arabia. The absorbance of this complex at 546 nm is proportional to the protein concentration. […]

[7] = tested on: CCl4-induced hepatotoxicity in hepatocytes of rats; experiment: Histopathological evaluation of liver of CCl4-intoxicated rats; assay type: in vivo, Wistar albino rats; settings: light micrographs, hematoxylin and eosin
Experimental: as §1, with “The rat livers were dissected out and used for biochemical estimations and histological assessment.” left out

melting point: 210 to 212 °C
SMILES: CCOc1ccc(C2NC(=O)NC=C2C(=O)c2ccc3c(c2)OCCO3)cc1 (centres unmarked) [DHPB-6, 4-(4-Ethoxyphenyl)-5-(2,3-dihydro-1,4-benzodioxin-6-ylcarbonyl)-3,4-dihydro-pyrimidin-2(1H)-one]

SMILES: O=C1NC=C(C(=O)c2ccc3c(c2)OCCO3)C(c2ccc([N+](=O)[O-])cc2)N1 (centres unmarked) [DHPB-2, 4-(4-Nitrophenyl)-5-(2,3-dihydro-1,4-benzodioxin-6-ylcarbonyl)-3,4-dihydro-pyrimidin2(1H)-one]
dose up to which no toxicity symptoms and no morbidity were observed [1]: up to 500 mg/kg | ALP level [2]: significant decrease | ALT level [2]: significant decrease | AST level [2]: significant decrease | GGT level [2]: significant decrease | bilirubin level [2]: significant decrease | HDL cholesterol level [3]: significantly improved | LDL cholesterol level [3]: significantly reduced | VLDL cholesterol level [3]: significantly reduced | cholesterol level [3]: significantly reduced | triglycerides level [3]: significantly reduced | level of MDA (in words) ([4]; 20 mg/kg, vs CCl4 group): significant reduction | MDA ([4]; dose 10 mg/kg + CCl4, n = 6, mean): 6.84 nmol/g | MDA ([4]; dose 20 mg/kg + CCl4, n = 6, mean): 1.59 nmol/g | NP-SH level (in words) ([5]; 20 mg/kg, vs CCl4 group): significantly enhanced | NP-SH ([5]; dose 10 mg/kg + CCl4): 4.30 nmol/g | NP-SH ([5]; dose 20 mg/kg + CCl4): 6.16 nmol/g | TP level (in words) ([6]; 20 mg/kg, vs CCl4 group): significantly enhanced | Total Protein ([6]; dose 10 mg/kg + CCl4): 38.11 g/L | Total Protein ([6]; dose 20 mg/kg + CCl4): 74.03 g/L | histopathological assessment of the liver ([7]; 10 mg/kg/day oral pretreatment): marked improvement in liver parenchyma | histopathological assessment of the liver ([7]; 20 mg/kg/day oral pretreatment): marked improvement in liver parenchyma
